Experimental data reported in PMC6419571, “Discovery and lead optimisation of a potent, selective and orally bioavailable RARβ agonist for the potential treatment of nerve injury” (Bioorganic & Medicinal Chemistry Letters, 2019).

Experiments:
Format in all cases: cell-based
RARβ = molecular target: T1, RARβ (Mus musculus, UniProt P22605); test: RAR beta transactivation assay (gal4-RAR LBD fusion, luciferase reporter, COS-7 cells); conditions: for Fold selectivity for β over γ: EC50 ratio of γ to β; for Fold selectivity for β over γ / Fold selectivity for β over α: mouse; for EC50: mouse RAR ligand binding domain, usually three experiments, read-out: β EC50; for Fold selectivity for β over α: EC50 ratio of α to β, Tables 1 and 4
T1 construct: expressed in transfected cells; host or cells: COS-7
T1 sequence (P22605 210-444 limits assumed): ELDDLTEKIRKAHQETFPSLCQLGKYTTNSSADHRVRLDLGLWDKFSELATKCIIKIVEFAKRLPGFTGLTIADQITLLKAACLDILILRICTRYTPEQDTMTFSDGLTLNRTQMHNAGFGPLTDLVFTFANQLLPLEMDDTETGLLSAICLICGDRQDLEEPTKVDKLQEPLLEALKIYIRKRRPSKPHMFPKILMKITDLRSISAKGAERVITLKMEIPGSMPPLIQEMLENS
Protocol: (§1) Compounds were tested in transactivation assays at the RAR α, β and γ receptors.
(§2) Transactivation assays for RAR alpha, beta and gamma receptors:
(§3) Transcriptional transactivation assays have been performed with gal4 fusion receptor constructs, created using each of the mouse RAR ligand-binding domains, co-transfected with the pFR-luc (Stratagene) reporter construct in COS-7 cells.
(§4) Briefly, on day one, 96 well plates were seeded with 8000 cells per well then left to recover overnight. On day two, the cells were co-transfected with 100ng of reporter plasmid and 10ng of the appropriate receptor plasmid per well using lipofectamine (Invitrogen). On day three, the lipofectamine containing media was replaced by a DMEM without phenol red, followed by the addition of novel compounds dissolved in 1µl of DMSO to each well’s 100µl total volume. Finally, on day four, the cells were lysed and their luciferase substrate was provided by the BrightGlo reagent (Promega), the plates were then read on the MicroBeta TriLux (Perkin Elmer).
(§5) Data for test compounds are quoted as EC50 values. Where replicate data has been generated the data are quoted as the mean EC50 from the separate experiments.

RARα = molecular target: T2, RARα (Mus musculus, UniProt P11416); test: RAR alpha transactivation assay (gal4-RAR LBD fusion, luciferase reporter, COS-7 cells); conditions: mouse RAR ligand binding domain; usually three experiments; read-out: α EC50
T2 construct: expressed in transfected cells; host or cells: COS-7
T2 sequence (P11416 183-417 limits assumed): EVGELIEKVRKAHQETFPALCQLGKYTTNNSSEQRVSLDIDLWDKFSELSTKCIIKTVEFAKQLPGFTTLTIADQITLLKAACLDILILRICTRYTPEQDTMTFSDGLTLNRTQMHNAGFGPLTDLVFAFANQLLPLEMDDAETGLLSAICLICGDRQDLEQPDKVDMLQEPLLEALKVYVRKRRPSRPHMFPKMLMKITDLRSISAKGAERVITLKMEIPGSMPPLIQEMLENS
Protocol: as §1, §2, §3, §4, §5

RARγ = molecular target: T3, RARγ (Mus musculus, UniProt P18911); test: RAR gamma transactivation assay (gal4-RAR LBD fusion, luciferase reporter, COS-7 cells); conditions: mouse RAR ligand binding domain; Tables 1 and 4; read-out: γ EC50
T3 construct: expressed in transfected cells; host or cells: COS-7
T3 sequence (P18911 185-419 limits assumed): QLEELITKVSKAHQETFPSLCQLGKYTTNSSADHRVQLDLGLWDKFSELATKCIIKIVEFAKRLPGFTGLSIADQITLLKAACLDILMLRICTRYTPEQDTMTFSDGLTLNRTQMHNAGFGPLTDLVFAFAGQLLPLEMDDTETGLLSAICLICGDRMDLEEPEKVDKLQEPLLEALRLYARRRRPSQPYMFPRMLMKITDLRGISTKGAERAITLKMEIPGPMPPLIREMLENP
Protocol: as §1, §2, §3, §4, §5

Structure (SMILES) | Fold selectivity for β over γ (RARβ) | EC50 (RARβ) | EC50 (RARα) | Fold selectivity for β over α (RARβ) | EC50 (RARγ) | fold more potent than 1 as an RARβ agonist (RARβ; relative to amide 1) | fold loss in potency as a RARβ agonist relative to 5 (RARβ; relative to 5)
Cc1ccc(C)c2sc(-c3nc(-c4ccc(C(=O)O)cc4)no3)cc12 [Compound 12] | 2 | 0.0034 µM | 0.03 µM | – | – | – | –
Cc1cc(-c2noc(-c3cc4c(C)ccc(C)c4o3)n2)ccc1C(=O)O [Compound 15] | 1.8 | 0.014 µM | 0.089 µM | – | – | – | –
Cc1cc(C(=O)O)ccc1-c1noc(-c2cc3c(C)ccc(C)c3o2)n1 [Compound 17] | 0.3 | 0.047 µM | 0.6 µM | – | – | – | –
Cc1ccc(C)c2oc(-c3nc(-c4ccc(C(=O)O)cc4F)no3)cc12 [Compound 16] | 0.33 | 0.011 µM | 0.061 µM | – | – | – | –
Cc1ccc(C)c2oc(-c3nc(-c4ccc(C(=O)O)c(F)c4)no3)cc12 [Compound 14] | 3.8 | 0.0022 µM | 0.016 µM | – | – | – | –
CCOc1c(Cl)cc(-c2nnc(-c3ccc(C(=O)O)cc3)o2)cc1Cl [Compound 7] | 2.4 | 0.063 µM | 0.058 µM | 0.92 | – | – | –
CC(C)(C)c1cc(-c2nc(-c3ccc(C(=O)O)cc3)no2)cc(C(C)(C)C)c1 [Compound 9] | 2.1 | 0.0014 µM | 0.004 µM | – | – | – | –
COc1ccc(-c2ccc3cc(C(=O)O)ccc3c2)cc1C1(C)CCCCC1 [CD 2019, reference compound] | – | 0.00083 µM | 0.0092 µM | – | 0.0016 µM | – | –
Cc1ccc(C)c2oc(-c3nc(-c4ccc(C(=O)O)cc4)no3)nc12 [Compound 13] | 7.5 | 0.011 µM | 0.114 µM | – | – | – | –
CCOc1c(Cl)cc(-c2csc(-c3ccc(C(=O)O)cc3)n2)cc1Cl [Compound 2] | 1.3 | 0.12 µM | 0.24 µM | 2 | – | – | –
CCOc1c(Cl)cc(-c2cnc(-c3ccc(C(=O)O)cc3)o2)cc1Cl [Compound 4] | 1.6 | 0.028 µM | 0.06 µM | 2.1 | – | > 40 fold | –
CCOc1c(Cl)cc(-c2nc(-c3ccc(C(=O)O)cc3)no2)cc1Cl [Compound 5] | 19 | 0.0015 µM | 0.018 µM | 12 | 0.028 µM | – | –
CC1(C)CCC(C)(C)c2cc(-c3nc(-c4ccc(C(=O)O)cc4)no3)ccc21 [Compound 8] | 0.0041 | 4.2 µM | 0.018 µM | – | – | – | > 2700 fold
O=C(O)c1ccc(-c2noc(-c3cc4c(C(F)(F)F)ccc(F)c4o3)n2)cc1 [Compound 11] | 2 | 0.0025 µM | 0.019 µM | – | – | – | –
CCOc1c(Cl)cc(-c2noc(-c3ccc(C(=O)O)cc3)n2)cc1Cl [Compound 6] | 0.05 | 0.11 µM | 0.031 µM | 0.28 | – | – | –
CCCCOCCOc1nc(-c2ccc(C(=O)O)c(F)c2)sc1C [AC 261066, reference compound] | 2.8 | 0.012 µM | 0.07 µM | 5.8 | 0.033 µM | – | –
CCOc1c(Cl)cc(-c2c[nH]c(-c3ccc(C(=O)O)cc3)n2)cc1Cl [Compound 3] | – | 0.423 µM | 0.594 µM | 1.4 | – | – | –
CCOc1c(Cl)cc(C(=O)Nc2ccc(C(=O)O)cc2)cc1Cl [Compound 1, 4-[(3,5-dichloro-4-ethoxybenzoyl)amino]benzoic acid] | 24 | 1.23 µM | 0.046 µM | 0.037 | – | – | –
